These results are taken from US20130330749A1, “METHOD AND APPARATUS FOR DETECTING LIVER DISEASE, AND METHOD FOR ASSAYING PHARMACEUTICAL PREPARATION” (priority 2008, published 2013).

Structures are written as SMILES.

The subject of one data set is glutathione. To be noted: mouse, large quantities of APAP, cited from earlier work.
In data set [1] the target is T1, γ-glutamyl cysteine synthase (GCS) (Mus musculus, UniProt P97494).
T1 construct: Liver specimens (about 300 mg) were excised from the mice 1 hour after administration; from tissue; host or cells: mouse liver (in vivo, intraperitoneal dosing); serum also measured
T1 sequence (P97494 1-637): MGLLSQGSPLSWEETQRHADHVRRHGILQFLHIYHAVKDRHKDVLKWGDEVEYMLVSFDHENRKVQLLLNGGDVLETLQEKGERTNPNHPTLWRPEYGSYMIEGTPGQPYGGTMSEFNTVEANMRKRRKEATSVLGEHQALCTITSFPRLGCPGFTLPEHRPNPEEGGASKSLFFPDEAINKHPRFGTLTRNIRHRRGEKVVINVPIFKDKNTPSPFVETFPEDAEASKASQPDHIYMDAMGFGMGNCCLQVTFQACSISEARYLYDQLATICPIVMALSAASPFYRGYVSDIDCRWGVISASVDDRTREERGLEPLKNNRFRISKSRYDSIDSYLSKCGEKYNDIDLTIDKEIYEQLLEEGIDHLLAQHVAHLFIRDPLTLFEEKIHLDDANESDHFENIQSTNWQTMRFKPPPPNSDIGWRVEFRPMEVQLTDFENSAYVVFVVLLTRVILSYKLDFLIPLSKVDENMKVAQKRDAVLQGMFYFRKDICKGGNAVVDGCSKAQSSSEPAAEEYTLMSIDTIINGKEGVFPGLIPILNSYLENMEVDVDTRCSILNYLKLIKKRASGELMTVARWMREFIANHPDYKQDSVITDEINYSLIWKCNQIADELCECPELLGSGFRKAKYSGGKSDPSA
T1 sequence (O09172 1-274 partner): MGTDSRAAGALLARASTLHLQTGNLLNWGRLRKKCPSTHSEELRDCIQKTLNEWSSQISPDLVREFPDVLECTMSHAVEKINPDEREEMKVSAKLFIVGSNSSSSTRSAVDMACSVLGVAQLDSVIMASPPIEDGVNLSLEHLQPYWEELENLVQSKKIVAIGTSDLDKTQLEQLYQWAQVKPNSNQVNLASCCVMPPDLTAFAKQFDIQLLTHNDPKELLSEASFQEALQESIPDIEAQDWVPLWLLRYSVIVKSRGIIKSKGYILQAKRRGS
Nature of the data set: Administration of GCS inhibitor BSO and GCS activator DEM to mice; metabolites in liver and serum measured by CE-TOFMS. The data set is classed as in vivo. To be noted: intraperitoneal 4 mmol/kg. The source says:
The biosynthesis mechanism of γ-Glu-X peptides was elucidated using a mouse. As shown in FIG. 1(B), the following biosynthesis mechanism of γ-Glu-X peptides was found. That is, the oxidative stress condition caused by active oxygen and electrophiles causes depletion of glutathione, which is used for removing these substances, and this depletion leads to activation of γ-glutamyl cysteine synthase (GCS). Then, γ-Glu-X dipeptides and γ-Glu-X-Gly tripeptides are biosynthesized by using various amino acids as substrates (starting materials). The experimental procedures are described below.
Male mice were fasted overnight and anesthetized by an intraperitoneal injection of pentobarbital sodium (60 mg/Kg of body weight). Then, the mice were intraperitoneally injected with BSO, which is a γ-glutamyl cysteine synthase (GCS) inhibitor, and diethylmaleate (DEM), which is an electrophile (GCS activator), both at a dose of 4 mmol/kg of body weight (888 mg of BSO, 688 mg of DEM). The mouse as a healthy subject was intraperitoneally injected with physiological saline. Liver specimens (about 300 mg) were excised from the mice 1 hour after administration (5 times each).
The liver specimens (about 300 mg) excised from the mice were immediately placed in 1 ml of methanol containing an internal standard substance and were homogenized to inactivate an enzyme, thereby stopping enhancement of metabolism. After 500 μl of pure water was added to the mixture, 300 μl of solution was taken out. To this solution, 200 μl of chloroform was added. After thorough stirring, the solution was further centrifuged at 15000 rpm for 15 minutes at 4° C. After allowing to stand, 300 μl of separated water-methanol phase was passed through a 5 kDa molecular weight cutoff filter for centrifugal ultrafiltration to deproteinize it. The filtrate was lyophilized and 50 μl of Milli-Q water was added thereto. The mixture was subjected to a CE-TOFMS measurement.
The method described below was used to confirm that the detected γ-Glu-X peptides and γ-Glu-X-Gly peptides were synthesized in a glutathione-biosynthesis pathway. […]

For the compound `CC(=O)Nc1ccc(O)cc1` [APAP, Acetaminophen], the ophthalmic acid level result in the data set on glutathione (in inverse proportion to the glutathione level) is given as “increased rapidly”. Moreover, in the data set with glutathione, the glutathione level entry is recorded as “decreased”.
As for `CCCCS(=N)(=O)CCC(N)C(=O)O` (centres unmarked) [BSO], the “amount of glutathione in the livers” value in data set [1] (liver 1 hour after administration, compared to the healthy (saline) mouse) is given as “decreased rapidly”. Moreover, in data set [1] (liver 1 hour after administration, compared to the healthy subject), the “γ-Glu-X and γ-Glu-X-Gly peptidic substances in the liver other than γ-Glu-Cys, GSH and γ-Glu-Ser-Gly” value is “decreased”. For the same compound, the “γ-Glu-2AB and ophthalmic acid (γ-Glu-2AB-Gly) in the murine serum” value in data set [1] (serum, compared to the normal state) was “decreased”.
